Data from publication PMC9284491 (Nature Communications, 2022).

Experiment: Treatment-emergent adverse events (MedDRA, NCI-CTCAE v4.03), safety populations
Format: in vivo, human
Conditions: Part B, 400 mg QD (N = 49)
Experimental: Overall safety in Parts A and B was assessed by tabulating TEAEs, coded using the Medical Dictionary for Regulatory Activities (MedDRA) version 22.1, and graded according to NCI-CTCAE v4.03 criteria. TEAEs were classified as related or unrelated to amcenestrant therapy based upon the local investigating physician’s clinical judgment. The safety population included all patients exposed to at least one dose of the study treatment. Results were analyzed using descriptive statistics.

Compound: O=C(O)c1ccc2c(c1)CCCC(c1ccc(Cl)cc1Cl)=C2c1ccc(O[C@H]2CCN(CCCF)C2)cc1 [amcenestrant, 6-(2,4-Dichlorophenyl)−5-[4-[(3S)−1-(3-fluoropropyl)pyrrolidin-3-yl]oxyphenyl]−8,9-dihydro-7H-benzo[7]annulene-2-carboxylic acid]
- Back pain, TEAEs, All grades: 5 (10.2) n (%)
- Back pain, TEAEs, Grade 1: 3 (6.1) n (%)
- Back pain, TEAEs, Grade 2: 2 (4.1) n (%)
- Back pain, TEAEs, Grade ≥3: 0 n (%)
- Back pain, Treatment-related TEAEs, All Grades: 0 n (%)
- Back pain, Treatment-related TEAEs, Grade 1: 0 n (%)
- Back pain, Treatment-related TEAEs, Grade 2: 0 n (%)
- Back pain, Treatment-related TEAEs, Grade ≥3: 0 n (%)
- Constipation, TEAEs, All grades: 14 (28.6) n (%)
- Constipation, TEAEs, Grade 1: 12 (24.5) n (%)
- Constipation, TEAEs, Grade 2: 2 (4.1) n (%)
- Constipation, TEAEs, Grade ≥3: 0 n (%)
- Constipation, Treatment-related TEAEs, All Grades: 3 (6.1) n (%)
- Constipation, Treatment-related TEAEs, Grade 1: 2 (4.1) n (%)
- Constipation, Treatment-related TEAEs, Grade 2: 1 (2.0) n (%)
- Constipation, Treatment-related TEAEs, Grade ≥3: 0 n (%)
- Cough, TEAEs, All grades: 4 (8.2) n (%)
- Cough, TEAEs, Grade 1: 4 (8.2) n (%)
- Cough, TEAEs, Grade 2: 0 n (%)
- Cough, TEAEs, Grade ≥3: 0 n (%)
- Cough, Treatment-related TEAEs, All Grades: 1 (2.0) n (%)
- Cough, Treatment-related TEAEs, Grade 1: 1 (2.0) n (%)
- Cough, Treatment-related TEAEs, Grade 2: 0 n (%)
- Cough, Treatment-related TEAEs, Grade ≥3: 0 n (%)
- Decreased appetite, TEAEs, All grades: 7 (14.3) n (%)
- Decreased appetite, TEAEs, Grade 1: 5 (10.2) n (%)
- Decreased appetite, TEAEs, Grade 2: 2 (4.1) n (%)
- Decreased appetite, TEAEs, Grade ≥3: 0 n (%)
- Decreased appetite, Treatment-related TEAEs, All Grades: 2 (4.1) n (%)
- Decreased appetite, Treatment-related TEAEs, Grade 1: 2 (4.1) n (%)
- Decreased appetite, Treatment-related TEAEs, Grade 2: 0 n (%)
- Decreased appetite, Treatment-related TEAEs, Grade ≥3: 0 n (%)
- Depression, TEAEs, All grades: 3 (6.1) n (%)
- Depression, TEAEs, Grade 1: 3 (6.1) n (%)
- Depression, TEAEs, Grade 2: 0 n (%)
- Depression, TEAEs, Grade ≥3: 0 n (%)
- Depression, Treatment-related TEAEs, All Grades: 2 (4.1) n (%)
- Depression, Treatment-related TEAEs, Grade 1: 2 (4.1) n (%)
- Depression, Treatment-related TEAEs, Grade 2: 0 n (%)
- Depression, Treatment-related TEAEs, Grade ≥3: 0 n (%)
- Diarrhea, TEAEs, All grades: 8 (16.3) n (%)
- Diarrhea, TEAEs, Grade 1: 5 (10.2) n (%)
- Diarrhea, TEAEs, Grade 2: 2 (4.1) n (%)
- Diarrhea, TEAEs, Grade ≥3: 1 (2.0) n (%)
- Diarrhea, Treatment-related TEAEs, All Grades: 1 (2.0) n (%)
- Diarrhea, Treatment-related TEAEs, Grade 1: 1 (2.0) n (%)
- Diarrhea, Treatment-related TEAEs, Grade 2: 0 n (%)
- Diarrhea, Treatment-related TEAEs, Grade ≥3: 0 n (%)
- Dry skin, TEAEs, All grades: 3 (6.1) n (%)
- Dry skin, TEAEs, Grade 1: 2 (4.1) n (%)
- Dry skin, TEAEs, Grade 2: 1 (2.0) n (%)
- Dry skin, TEAEs, Grade ≥3: 0 n (%)
- Dry skin, Treatment-related TEAEs, All Grades: 1 (2.0) n (%)
- Dry skin, Treatment-related TEAEs, Grade 1: 1 (2.0) n (%)
- Dry skin, Treatment-related TEAEs, Grade 2: 0 n (%)
- Dry skin, Treatment-related TEAEs, Grade ≥3: 0 n (%)
- Dyspnea, TEAEs, All grades: 8 (16.3) n (%)
- Dyspnea, TEAEs, Grade 1: 6 (12.2) n (%)
- Dyspnea, TEAEs, Grade 2: 2 (4.1) n (%)
- Dyspnea, TEAEs, Grade ≥3: 0 n (%)
- Dyspnea, Treatment-related TEAEs, All Grades: 1 (2.0) n (%)
- Dyspnea, Treatment-related TEAEs, Grade 1: 1 (2.0) n (%)
- Dyspnea, Treatment-related TEAEs, Grade 2: 0 n (%)
- Dyspnea, Treatment-related TEAEs, Grade ≥3: 0 n (%)
- Edema peripheral, TEAEs, All grades: 3 (6.1) n (%)
- Edema peripheral, TEAEs, Grade 1: 3 (6.1) n (%)
- Edema peripheral, TEAEs, Grade 2: 0 n (%)
- Edema peripheral, TEAEs, Grade ≥3: 0 n (%)
- Edema peripheral, Treatment-related TEAEs, All Grades: 1 (2.0) n (%)
- Edema peripheral, Treatment-related TEAEs, Grade 1: 1 (2.0) n (%)
- Edema peripheral, Treatment-related TEAEs, Grade 2: 0 n (%)
- Edema peripheral, Treatment-related TEAEs, Grade ≥3: 0 n (%)
- Fatigue, TEAEs, All grades: 12 (24.5) n (%)
- Fatigue, TEAEs, Grade 1: 8 (16.3) n (%)
- Fatigue, TEAEs, Grade 2: 2 (4.1) n (%)
- Fatigue, TEAEs, Grade ≥3: 2 (4.1) n (%)
- Fatigue, Treatment-related TEAEs, All Grades: 2 (4.1) n (%)
- Fatigue, Treatment-related TEAEs, Grade 1: 2 (4.1) n (%)
- Fatigue, Treatment-related TEAEs, Grade 2: 0 n (%)
- Fatigue, Treatment-related TEAEs, Grade ≥3: 0 n (%)
- Gastroesophageal reflux disease, TEAEs, All grades: 4 (8.2) n (%)
- Gastroesophageal reflux disease, TEAEs, Grade 1: 4 (8.2) n (%)
- Gastroesophageal reflux disease, TEAEs, Grade 2: 0 n (%)
- Gastroesophageal reflux disease, TEAEs, Grade ≥3: 0 n (%)
- Gastroesophageal reflux disease, Treatment-related TEAEs, All Grades: 3 (6.1) n (%)
- Gastroesophageal reflux disease, Treatment-related TEAEs, Grade 1: 3 (6.1) n (%)
- Gastroesophageal reflux disease, Treatment-related TEAEs, Grade 2: 0 n (%)
- Gastroesophageal reflux disease, Treatment-related TEAEs, Grade ≥3: 0 n (%)
- Headache, TEAEs, All grades: 3 (6.1) n (%)
- Headache, TEAEs, Grade 1: 3 (6.1) n (%)
- Headache, TEAEs, Grade 2: 0 n (%)
- Headache, TEAEs, Grade ≥3: 0 n (%)
